# Key:
# TvaCA2 [1] = biological target: T1, TvaCA2 (Trichomonas vaginalis, UniProt A2DLG4); assay: stopped-flow CO2 hydration, phenol red; format: biochemical; conditions: read-out: TvaCA2 β
# T1 construct: gene TVAG_268150; recombinant in E. coli BL21 Star (DE3), pBVboostFG; 6xHis-tag removed by thrombin; 185 residues; homodimer, zinc
# T1 sequence (A2DLG4 1-184): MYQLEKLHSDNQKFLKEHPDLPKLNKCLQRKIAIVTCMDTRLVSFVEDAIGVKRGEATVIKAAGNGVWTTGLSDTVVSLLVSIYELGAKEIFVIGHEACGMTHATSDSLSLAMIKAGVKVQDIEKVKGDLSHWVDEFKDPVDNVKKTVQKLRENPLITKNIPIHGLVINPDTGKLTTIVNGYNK
# TvaCA2 [2] = biological target: T1, TvaCA2; assay: biochemical; set-up: stopped-flow CO2 hydration, phenol red absorbance at 557 nm, 20 °C, pH 7.5, 15 min preincubation; conditions: read-out: TvaCA2 β
# Procedure: CA-catalyzed CO2 hydration activity was investigated with an Applied Photophysics stopped-flow instrument at 20 °C [20]. Twenty millimolar Hepes was used as buffer (pH 7.5) with 20 mM Na2SO4 (for maintaining a constant ionic strength). Phenol red of 0.2 mM was used as a pH indicator, working at a maximum absorbance of 557 nm. The initial rates of the CA-catalyzed CO2 hydration reaction were followed for 10–100 s. CO2 concentrations of 1.7–17 mM were used to determine the kinetic parameters and inhibition constants. For each inhibitor, the initial velocity was determined by using ≥ 6 traces of the initial 5–10% of the reaction. The uncatalyzed rates were determined similarly and subtracted from the total observed rates. DSMO was used at 5% to make the stock solution, from which 0.1 mM inhibitor solutions were prepared in dH2O. Subsequently, dilutions up to 0.01 nM were prepared with dH2O. Inhibitor and enzyme solutions were preincubated together (15 min, room temperature) prior to the assay to allow the formation of the enzyme–inhibitor complex. The inhibition constants were obtained by nonlinear least-squares methods using PRISM 3 and represent the means from ≥ 3 different measurements. The gene sequence of the second β-CA of T. vaginalis (TvaCA2) was retrieved from Universal Protein Resource Database UniProt (protein entry A2DLG4). An Escherichia coli expression system with a multipromoter vector, pBVboostFG (Online Resource 1), was used for the expression of TvaCA2. Gene synthesis and subcloning were performed by GeneArt (Thermo Fisher Scientific, Waltham, USA). The cells (OneShot® BL21 Star™ (DE3) Chemically Competent Cells, #C601003, Thermo Fisher Scientific, Waltham, USA) were cultured in an orbital shaker (200 rpm, 37 °C) in Luria–Bertani (LB) medium supplemented with 10 mg/mL gentamicin (1:1000). The cells were harvested via centrifugation (4 °C, 15 min, 5000 × g) after reaching an optical density of 0.4–0.6, and they were mechanically disrupted with an EmulsiFlex-C3 homogenizer (AVESTIN, Ottawa, Canada) in 50 mM Na2HPO4, 0.5 M NaCl, and 50 mM imidazole binding buffer (BB; pH 8.0), and centrifuged (13,000 × g, 15 min, 4 °C). […] After incubation, the resin was packed into a chromatography column with an EMD Millipore™ vacuum filtering flask (#XX1004705, Merck, Darmstad, Germany). The protein was eluted with 50 mM Na2HPO4, 0.5 M NaCl, and 350 mM imidazole (pH 7.0). The 6xHis-tag was removed by thrombin (#RECOMT, Sigma-Aldrich, St. Louis, USA) according to the Thrombin CleanCleave™ Kit manual (Sigma-Aldrich, St. Louis, USA) followed by Ni^2+-NTA affinity chromatography. NanoDrop One (Thermo Fisher Scientific, Waltham, USA) was used to determine the protein yield, and the quality of the purified protein was analyzed by SDS-PAGE (sodium dodecyl sulfate–polyacrylamide gel electrophoresis) using a 12% polyacrylamide gel visualized with PageBlue Protein staining solution (Thermo Fisher Scientific, #24,620, Waltham, USA). The obtained polypeptide bands of the SDS-PAGE gel were identified using tandem mass spectrometry (MS/MS; Meilahti Clinical Proteomics Core Facility, […]
compound,measurement,setting,value
"CCN1CCCC1CNC(=O)c1cc(S(N)(=O)=O)ccc1OC (centres unmarked) [SLP, sulpride]",Ki,TvaCA2 [1],> 10 µM
NS(=O)(=O)c1nnc(NS(=O)(=O)c2ccccc2)s1 [BZA],Ki,TvaCA2 [1],4.21 µM
"Nc1ccc(S(N)(=O)=O)cc1Br [compound 9, 3-bromo-4-amino-benzenesulfonamide]",Ki,TvaCA2 [1],> 10 µM
NS(=O)(=O)c1ccc(C(=O)O)cc1 [compound 18],Ki,TvaCA2 [2],1.63 µM
"Nc1cc(C(F)(F)F)c(S(N)(=O)=O)cc1S(N)(=O)=O [compound 11, 4-amino-6-trifluoromethyl-benzene-1,3-disulfonamide]",Ki,TvaCA2 [1],0.44 µM
"CC1(C)O[C@@H]2[C@@H](CO[C@@]3(COS(N)(=O)=O)OC(C)(C)O[C@@H]23)O1 [TPM, topiramate]",Ki,TvaCA2 [1],> 10 µM
"Nc1nnc(S(N)(=O)=O)s1 [compound 13, 5-amino-1,3,4-thiadizole-2-sulfonamide]",Ki,TvaCA2 [1],1.15 µM
Nc1ccc(S(=O)(=O)Nc2nnc(S(N)(=O)=O)s2)cc1 [compound 20],Ki,TvaCA2 [2],1.04 µM
Cc1ccc(S(N)(=O)=O)cc1 [compound 04],Ki,TvaCA2 [2],1.29 µM
NS(=O)(=O)c1ccc(CCNS(=O)(=O)c2ccc([N+](=O)[O-])cc2CO)cc1 [compound 21],Ki,TvaCA2 [2]; inhibitor,4.16 µM
Nc1ccc(S(N)(=O)=O)cc1 [compound 02],Ki,TvaCA2 [2],1.29 µM
NS(=O)(=O)c1cc(Cl)cc(Cl)c1O [compound 10],Ki,TvaCA2 [2]; inhibitor,> 10 µM
"Nc1cc(Cl)c(S(N)(=O)=O)cc1S(N)(=O)=O [compound 12, 4-amino-6-chloro-1,3-benzenedisulfonamide]",Ki,TvaCA2 [1],0.382 µM
"NS(=O)(=O)c1ccc(S(=O)(=O)Nc2cccc3c(Cl)c[nH]c23)cc1 [IND, indisulam]",Ki,TvaCA2 [1],> 10 µM
"NS(=O)(=O)c1cccc(S(N)(=O)=O)c1 [compound 3, 1,3-disulfamoyl benzene]",Ki,TvaCA2 [1],0.446 µM
"CC(=O)N=c1sc(S(N)(=O)=O)nn1C [MZA, methazolamide]",Ki,TvaCA2 [1],0.39 µM
Nc1nccc(Nc2ccc(S(N)(=O)=O)cc2)n1 [compound 19],Ki,TvaCA2 [2]; inhibitor,> 10 µM
Cn1nc(S(N)(=O)=O)sc1=N [compound 14],Ki,TvaCA2 [2],1.61 µM
Nc1ccc(S(=O)(=O)NCc2ccc(S(N)(=O)=O)cc2)cc1 [compound 23],Ki,TvaCA2 [2],2.26 µM
Nc1cccc(S(N)(=O)=O)c1 [compound 01],Ki,TvaCA2 [2]; inhibitor,3.93 µM
Nc1ccc(S(N)(=O)=O)cc1Cl [compound 08],Ki,TvaCA2 [2],3.95 µM
"Cc1onc(-c2ccccc2)c1-c1ccc(S(N)(=O)=O)cc1 [VLX, valdecoxib]",Ki,TvaCA2 [1],> 10 µM
Nc1ccc(S(=O)(=O)Nc2ccc(S(N)(=O)=O)cc2)cc1 [compound 22],Ki,TvaCA2 [2],3.9 µM
"NS(=O)(=O)c1ccc(N2CCCCS2(=O)=O)cc1 [SLT, sulthiame]",Ki,TvaCA2 [1],> 10 µM
NCc1ccc(S(N)(=O)=O)cc1 [compound 05],Ki,TvaCA2 [2],4.19 µM
"Cc1ccc(-c2cc(C(F)(F)F)nn2-c2ccc(S(N)(=O)=O)cc2)cc1 [CLX, celecoxib]",Ki,TvaCA2 [1],> 10 µM
NCCc1ccc(S(N)(=O)=O)cc1 [compound 06],Ki,TvaCA2 [2],4.23 µM
"O=C1NS(=O)(=O)c2ccccc21 [SAC, saccharin]",Ki,TvaCA2 [1],> 10 µM
CCN[C@H]1CN(CCCOC)S(=O)(=O)c2sc(S(N)(=O)=O)cc21 [BRZ],Ki,TvaCA2 [1],3.23 µM
NS(=O)(=O)c1cc2c(cc1Cl)NCNS2(=O)=O [HCT],Ki,TvaCA2 [1],3.06 µM
"NS(=O)(=O)Cc1noc2ccccc12 [ZNS, zonisamide]",Ki,TvaCA2 [1],> 10 µM
Nc1ccc(S(N)(=O)=O)cc1F [compound 07],Ki,TvaCA2 [2],1.29 µM

# Source: publication PMC8724216, “Biochemical and structural characterization of beta-carbonic anhydrase from the parasite Trichomonas vaginalis” (Journal of Molecular Medicine (Berlin, Germany), 2021)
